Results published in US6064908A, “Device for ionophoresis comprising at least a membrane electrode assembly, for the transcutaneous administration of active principles to a subject” (Elf Aquitaine, priority 1996, dated 2000).

Conditions: not told
Excerpt: In each of the determinations mentioned above, samples of the liquid contained in the receiver compartment were taken after determined durations and, by assaying the antifactor Xa activity of the said samples, the quantity of pentasaccharide which has passed into the receiver compartment through the membrane was obtained.

Permeability (to pentasaccharide), passive: ~ 0 μg/cm^2
Substance: polyamide-11
